# Test results as given in publication PMC8062851, “2-Methoxyestradiol and its derivatives inhibit store-operated Ca^2+ entry in T cells: Identification of a new and potent inhibitor” (Biochimica et Biophysica Acta. Molecular Cell Research, 2021).
# “Also recorded” adds a separate entry of the source.
# Columns and labels:
# [1] = tested on: Mn2+ entry into Jurkat T cells; assay: Mn2+ quenching of Fura2 after store depletion in Jurkat T cells; format: cell-based, human; settings: store depletion by thapsigargin, 10 μM
# Experimental: Mn^2+ quenching of Fura2 was used to analyze influx of divalent cations into Jurkat T cells. Like for Ca^2+ measurements, 10^6 loaded Jurkat T-lymphocytes were pelleted and Ca^2+ buffer was exchanged for nominal Ca^2+ free buffer (see above). Instead of Ca^2+, Mn^2+ was added 1220 s after the start of the measurement. To investigate Mn^2+ quenching independently of any effects of Ca^2+, Fura2 was excited at its isosbestic point, which was experimentally determined to be 357 nm. The emission wavelength was set to 495 nm. In contrast to the Ca^2+ measurement experiments, these measurements were not calibrated.
# For quantitative analysis, the velocity of quenching was calculated as the initial slope. After Mn^2+ addition, there was a very fast drop in Fura2 fluorescence in all experiments. This drop lasted for about 10 s and was probably due to quenching of extracellular Fura2. […]
# y0 is the fluorescence at the start of the decay, P is the theoretical fluorescence at the end of the decay at infinite times, K is the rate constant, and x is the time. […]
# The fluorescence before Mn^2+ addition was fitted to a straight line using the following equation:(4) y’=m·x+c
# m is the slope, x is the time and c is the y-intercept. […] So the initial slope (si) after Mn^2+ addition was calculated using the following equation:(5) si=(y0–P)*(-K)*e(-K*1230s)–m
# IP3 receptors = assay: IP3-evoked Ca2+ release in permeabilized Jurkat T cells; format: cell-based, human; settings: 2 μM IP3
# Experimental: (§1) 3 ∗ 10^7 Jurkat T-lymphocytes per measurement were centrifuged at 450 ×g for 5 min at room temperature. The pellet was rinsed twice, each time using 10 ml permeabilization buffer 1 (120 mM KCl, 10 mM NaCl, 1.2 mM MgCl2, 0.533 mM CaCl2, 1 mM EGTA and 10 mM HEPES, pH 7.2 (KOH), sterile filtered). Subsequently, the pellet was resuspended in 2 ml permeabilization buffer 1 containing 80 μg/ml saponin (Fluka) and the cells were incubated for 10 min at 37 °C. Subsequently, the cells were centrifuged at 450 ×g for 5 min at room temperature and the cell pellet was washed once in 10 ml permeabilization buffer 2 (120 mM KCl, 10 mM NaCl, 1.2 mM MgCl2 and 10 mM HEPES, pH 7.2 (KOH), sterile filtered). Finally, the cells were taken up in 1 ml permeabilization buffer 2, placed into a cuvette and measured at the fluorescence spectrophotometer. Before the start of the measurement, 0.5 μl of 1 mM Fura2 free acid (dissolved in pure water, final concentration: 0.5 μM), 5 μl of 5 mg/ml creatinkinase (dissolved in permeabilization buffer 2, final concentration: 25 μg/ml, 20 U/ml, Roche) and 10 μl of 2 M creatin phosphate (dissolved in permeabilization buffer 2, final concentration: 20 mM, Calbiochem) were added. Fura2 was used to measure the Ca^2+ concentration and creatinkinase and creatin phosphate were used as ATP-regenerating system. The measurement was controlled by FL Solutions (Version 4.1, Hitachi High-Technologies Corporation). Fura2 was alternatively excited every 2 s at 340 ± 5 nm and 380 ± 5 nm, each 400 ms apart. Fluorescence intensity was measured at an emission wavelength of 495 ± 5 nm for both excitation wavelengths. […] Ca^2+ concentrations were calculated according to Grynkiewicz et al. as described earlier in Section 2.4.
# (§2) As a quantitative read-out for inhibition of IP3 receptors, the peak [Ca^2+] after IP3 addition was subtracted from the mean [Ca^2+] between 25 and 75 s before IP3 addition (dPeak). […] The rate constant K of the fitted data was used as a quantitative read-out for SERCA pump activity and its inhibition.
# SERCA pumps = assay: SERCA activity (ATP-induced Ca2+ reuptake) in permeabilized Jurkat T cells; format: cell-based, human
# Experimental: as §1, §2
# TMBP cells [2] = assay: In vitro activation of TMBP cells by MBP, cytokine mRNA by qPCR; format: cell-based, rat
# Experimental: Myelin basic protein (MBP)-reactive CD4^+ T cells retrovirally transduced to express enhanced GFP (TMBP cells) were established as previously reported. In brief, 6–8 week old female Lewis rats were immunized subcutaneously with 150 μl of emulsion consisting of equal parts of MBP (stock concentration: 1 mg/ml) and complete Freund's adjuvant containing heat-inactivated Mycobacterium tuberculosis extract (Difco; stock concentration: 2 mg/ml). Draining lymph nodes were harvested and passed through a cell strainer (40 μm) 9–10 days after immunization. The cell suspension was co-cultured with GP + E86 packaging cell lines producing replication-deficient retroviruses in the presence of 10 μg/ml MBP. Murine IL-2 was added to the culture for T cell expansion from day 2–4 after stimulation. The cell lines underwent 3–4 cycles of stimulation before being used for in vitro and in vivo experiments. […] Upon stimulation, they produced interferon-γ and IL-17.
# (§3) In vitro activation assays were performed in 96-well plates. […]. TMBP cell activation on mRNA level was determined using qPCR and on surface protein level using surface marker staining and subsequent flow cytometry analysis.
# Total RNA was isolated using the standard TRIzol method. cDNA was synthesized using the RevertAid First Strand cDNA Synthesis Kit (Thermo Fisher Scientific). Quantitative PCR (qPCR) was performed using the StepOnePlus™ Real-Time PCR System (Applied Biosystems), as previously described [[23], [24], [25]]. Rat TMBP cell data were obtained from three to four independent duplicate measurements. β-actin served as housekeeping gene. Human PBMC data were obtained from two independent healthy donors and duplicate measurements (representative data of one donor are shown). HPRT served as housekeeping gene. For all probes (TaqMan), a combination of 5′-FAM and 3′-TAMRA quencher was used as described.
# TMBP cells [3] = assay: In vitro activation of TMBP cells by MBP, CD25 surface expression by flow cytometry; format: cell-based, rat
# Experimental: as §3
# To assess in vitro T cell activation, surface staining for CD25 (OX39, Bio-Rad) was performed. APC-labelled goat anti-mouse antibody (Jackson ImmunoResearch) was used as secondary antibody. Mouse IgG1κ (MOPC 31C, Sigma-Aldrich) was used as control.
# Cytofluorometric analysis was carried out with a CytoFLEX S (Beckman Coulter) operated by CytExpert software (Beckman Coulter). All procedures were performed at 4 °C. Data were analyzed by using FlowJo software (FlowJo, LLC).
smiles,measurement,setting,value
"CCc1cc2c(cc1OS(N)(=O)=O)CC[C@@H]1[C@@H]2CC[C@]2(C)[C@@H](CC#N)CC[C@@H]12 [STX564, 2-ethyl-3-sulfamoyloxy-17β-cyanomethylestra-1,3,5(10)-triene]",antagonism of Mn2+ entry (Mn2+ quenching of Fura2),[1],almost fully
same,effect on IP3-evoked Ca2+ release,IP3 receptors,Neither STX564 nor Synta66 affected IP3-evoked Ca^2+ release significantly; also recorded: did not inhibit the Ca^2+ release by IP3
same,effect on SERCA activity (initial slope of [Ca2+] upon ATP addition),SERCA pumps,"Neither STX564, Synta66 nor vehicle DMSO affected ATP-induced Ca^2+ reuptake by SERCA pumps; also recorded: neither STX564 nor Synta66 showed any effect"
same,concentration at which TCR/CD3-evoked pro-inflammatory cytokine expression was significantly reduced,"TMBP cells [2]; TMBP cells + MBP, 6 h, qPCR",≥ 0.1 µM
same,concentration at which interferon-γ expression was significantly antagonized,"TMBP cells [2]; TMBP cells + MBP, 6 h, qPCR, STX564 vs Synta66",≥ 0.1 µM
same,"fold higher antagonist potency over Synta66, pro-inflammatory cytokine expression","TMBP cells [2]; rat effector TMBP cells, especially INF-γ expression",approx. 100 fold
same,concentration at which up-regulation of CD25 was significantly reduced,TMBP cells [3],≥ 0.1 µM
